Assay results from patent publication US5574023A, “Intramolecularly crosslinked (1→3)-β-D-glucans” (Seikagaku Kogyo Kabushiki Kaisha (Seikagaku Corporation), priority 1991, dated 1996).

How the values were obtained:
[1] = Single helix conformation content by high-resolution 13C-NMR of hydrated solid sample; type: physicochemical; settings: for Single helix conformation % retention after one month: aqueous solution or suspension stored aseptically at 4° C. for 1 month, versus initial value; for Single helix conformation content in hydrated solid sample: immediately after synthesis, 13C-NMR
Description: Each sample was deprived of water by lyophilization and then maintained in saturated water vapor, and the hydrated solid sample obtained was subjected to high-resolution ^13 C-NMR spectrometry. The single helix conformation content in the (1→3)-β-D-glucan in the sample was calculated by comparing the chemical shift peak heights for each carbon atom with the peak heights of the chemical shifts shown in Table 1 for other higher-order structure carbon atoms.
The single helix conformation contents thus obtained from the chemical shifts of C-2, C-3 and C-5 and the respective peak heights are shown in Table 2.
Furthermore, aqueous solutions or suspensions were stored in aseptic condition at 4° C. for 1 month and then tested for single helix conformation content in the same manner. The data obtained were compared with the initial values and the rates of retention of the respective single helix conformations contained were calculated. The uncrosslinked, single helix conformation schizophyllan, when subjected to solid-phase ^13 C-NMR spectrometry immediately after formation of said conformation, gave a single helix conformation content of 60% but, after one-month storage, the content of said structure was only 6% (10% retention). This is due to advanced transformation from the single helix conformation to other higher-order structures.

[2] = test system: Sarcoma 180 cells; test: Tumor inhibition rate, Sarcoma 180 transplanted subcutaneously in mice; type: in vivo, CLJ-ICR female mice; settings: intraperitoneal, 10 times (days 1-5 and 7-11), tumor weight on day 13 versus untreated control; for % Tumor inhibition, after one month: sample administered after one month storage at 4° C.; for % Tumor inhibition, initial: sample administered immediately after preparation
Description: Sarcoma 180 cells (5×10^6 cells) were transplanted subcutaneously into the groin of each of 6-week-old CLJ-ICR female mice weighing about 25 g. The intramolecularly crosslinked, single helix conformation (1→3)-β-D-glucans of the invention as obtained in Examples 1-10 and the uncrosslinked, single helix conformation schizophyllan of Comparative Example were respectively administered to the mice at 24 hours after transplantation (day 1) and thereafter once daily on days 1-5 and 7-11 (10 times in total). Thus, each sample was comminuted in a mortar, suspended or dissolved in physiological saline for injection, sterilized in an autoclave at 121° C. for 20 minutes, and then intraperitoneally administered. In a control group, no glucan was given to mice.
On day 13, tumor nodules were excised and weighed, and their weights were compared with the tumor weight in the untreated control group for calculating tumor inhibition rates.
In the above test, sample solutions or suspensions were administered immediately after preparation on one hand and, on the other, the solutions or suspensions were administered after one month storage at 4° C.

[3] = test system: Horseshoe crab lysate factor G; test: Factor G activating ability (pNA release from Boc-Leu-Gly-Arg-pNA); type: biochemical; settings: for % Retention of factor G activating ability after one month: aqueous solution or suspension stored one month at 4° C., versus initial value
Description: For each sample to be tested, a reaction mixture (200 μl) containing the sample, water and the ingredients mentioned below was prepared. […]
This reaction mixture was incubated at 37° C. for 30 minutes and, then, p-nitroaniline (pNA) liberated was quantitated. Thus, to the sample after incubation were added 0.5 ml each of 0.04% sodium nitrite (solution in 0.48M hydrochloric acid), 0.3% ammonium sulfamate and 0.07% N-1-naphthylethylenediamine dihydrichloride in that order for causing a change in color tone due to diazo coupling, and the absorbance at 545 nm (A545) was determined.
This measurement was performed for an aqueous solution or suspension of each substance immediately after synthesis thereof. The same measurement was also performed after one month storage of the sample at 4° C., the minimum concentration (C, g/ml) at which the absorbance at 545 nm amounted to 0.1 was determined, and the factor G activating ability was expressed in terms of -log C (g/ml) value. By comparing this value with the initial value, the rate of retention of factor G activating ability was calculated.

| Substance | Single helix conformation % retention after one month [1] | Single helix conformation content in hydrated solid sample [1] | % Tumor inhibition, after one month [2] | % Tumor inhibition, initial [2] | % Retention of factor G activating ability after one month [3] | Initial factor G activating ability, -log C (minimum concentration at which A545 amounted to 0.1) ([3]; immediately after synthesis, 37° C., 30 minutes) |
| --- | --- | --- | --- | --- | --- | --- |
| Glutardialdehyde-crosslinked hydrazino yeast glucan [Example 9] | 53% | 23% | 73.0% | 90.0% | 20% | – |
| Glutardialdehyde-crosslinked hydrazinolentinan [Example 10] | 52% | 35% | 80.0% | 96.0% | 20% | – |
| Hexamethylenedihydrazine-crosslinked carboxymethylated curdlan [Example 8] | 70% | 60% | 75.3% | 98.2% | 10% | – |
| Glutardialdehyde-crosslinked hydrazinoschizophyllan [Example 7] | 80% | 70% | 95.0% | 100% | 25% | – |
| Pimelic acid-crosslinked hydrazinoschizophyllan [Example 5] | 60% | 55% | 65.6% | 95.3% | 10% | – |
| Glutardialdehyde-crosslinked hydrazinocurdlan [Example 2] | 70% | 65% | 91.1% | 98.2% | 20% | – |
| 2,3,4-Trihydroxyadipodihydrazide-crosslinked aldehyde schizophyllan [Example 6] | 90% | 70% | 96.1% | 100% | 30% | – |
| Glutardialdehyde-crosslinked hydrazinocurdlan (no receptor added) [Example 1] | 60% | 70% | 70.0% | 98.0% | 10% | 11 -log C (g/ml) |
| Dodecamethylenediamine-crosslinked aldehyde schizophyllan [Example 4] | 100% | 75% | 98.4% | 100% | 100% | – |
| 2,3,4-Trihydroxyadipodialdehyde-crosslinked hydrazinocurdlan [Example 3] | 80% | 70% | 92.1% | 100% | 20% | – |
